Test results as given in PubChem BioAssay (NCI).
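1) Cells in 96-well plates. 2) Compound, 48 h, 5 concentrations. 3) Linear interpolation between surrounding doses. 4) Unreached endpoint = highest concentration. GI50: concentration for 50% inhibition of growth. TGI is the concentration that stops growth completely.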

Key:
Experiment in all cases: growth of human tumour cells (NCI), 48 h
SK-OV-3 ovarian = tested on: SK-OV-3 ovarian
ACHN renal = tested on: ACHN renal
IGROV1 ovarian = tested on: IGROV1 ovarian
OVCAR-4 ovarian = tested on: OVCAR-4 ovarian
U251 CNS = tested on: U251 CNS
OVCAR-8 ovarian = tested on: OVCAR-8 ovarian
MDA-MB-231 breast = tested on: MDA-MB-231 breast
SNB-75 CNS = tested on: SNB-75 CNS
786-0 renal = tested on: 786-0 renal
MCF7 breast = tested on: MCF7 breast

Compound	GI50 (SK-OV-3 ovarian) [µM]	TGI (SK-OV-3 ovarian) [µM]	GI50 (ACHN renal) [µM]	TGI (ACHN renal) [µM]	GI50 (IGROV1 ovarian) [µM]	TGI (IGROV1 ovarian) [µM]	GI50 (OVCAR-4 ovarian) [µM]	TGI (OVCAR-4 ovarian) [µM]	GI50 (U251 CNS) [µM]	TGI (U251 CNS) [µM]	GI50 (OVCAR-8 ovarian) [µM]	TGI (OVCAR-8 ovarian) [µM]	GI50 (MDA-MB-231 breast) [µM]	TGI (MDA-MB-231 breast) [µM]	GI50 (SNB-75 CNS) [µM]	TGI (SNB-75 CNS) [µM]	GI50 (786-0 renal) [µM]	TGI (786-0 renal) [µM]	GI50 (MCF7 breast) [µM]	TGI (MCF7 breast) [µM]
COC1CC2CCC(C)C(O)(O2)C(=O)C(=O)N2CCCCC2C(=O)OC(C(C)CC2CCC(O)C(OC)C2)CC(=O)C(C)C=C(C)C(O)C(OC)C(=O)C(C)CC(C)/C=C/C=C/C=C1C (configuration not stated)	< 0.005	10.7	2.55	21.1	< 0.005	11.8	< 0.005	10.5	0.0523	10	< 0.005	24.6	4.32	12.9	< 0.005	7.93	5.48	17.3	< 0.005	14.6
CC[C@H](Nc1nc(NCc2cnc(C)cc2C)c2ncn(C(C)C)c2n1)[C@@H](C)O	3.89	> 100	0.327	> 100	0.347	> 100	0.631	11.5	0.333	> 100	0.382	> 100	0.313	> 100	0.159	0.407	0.361	> 100	0.284	7.23
CCC/C(=N/N=C(N)N)c1ccc(NC(=O)c2cc3cc(OC)ccc3[nH]2)cc1	13.9	29.6	13.1	33.1	20.2	56.9	3.74	18.7	6.35	25.1	12.7	39.1	11.5	29.4	2.94	18	3.61	29.2	2.76	12.2
CC1=C2C[C@H]3[C@@H](CC[C@@H]4CC(NS(C)(=O)=O)CC[C@@]43C)[C@@H]2CC[C@@]2(C1)O[C@@H]1C[C@H](C)CN[C@H]1[C@H]2C (some centres not stated)	8.49	21.2	3.85	14.6	11.9	26	1.66	4.79	6.92	20.8	12	25.7	5.68	18.8	3.07	15.9	8.94	24.2	3.49	14.9
O=c1c2ccccc2n(C[C@H]2CO2)c2ccccc12	2.64	7.33	0.886	3.9	1.53	5.6	2.4	7.89	1.82	7.3	1.26	5.35	2.07	5.24	1.52	3.46	2.75	8.17	0.39	2.98
C/C(=N/Nc1nc2ccccc2n1C)c1ccccn1	0.113	5.93	0.0136	7.7	0.0327	12.5	0.0292	11.8	0.115	19.7	0.118	16.2	0.0561	15.3	0.246	8.86	0.0638	10.6	0.0276	16.1
O=c1ccn(C2OC(CO/N=C/c3ccc(O)c(O)c3O)C(O)C2O)c(=O)[nH]1 (configuration not stated)	27.2	89	31.8	> 100	19.4	38.5	18.9	37.8	16.8	30.4	22.3	56	30	> 100	16.4	32.2	> 100	> 100	18.8	37.6
Cc1cc(S(N)(=O)=O)c(S/C(CC(C)C)=N\Nc2ccc([N+](=O)[O-])cc2)cc1Cl	13.7	28.2	5.44	17.4	6.77	21.2	5.01	20.5	10.6	25.5	16.9	52.8	2.77	9.52	4.05	18.7	7.15	19.8	2.36	7.27
O=C(CNc1ccc2c(c1)C(=O)c1ccccc1C2=O)Nc1ccc2c(c1)C(=O)c1ccccc1C2=O	1.82	6.99	1.58	3.01	0.681	2.7	1.5	4.05	0.449	1.57	0.423	2.03	1.31	4.71	1.79	4.3	0.451	1.69	0.809	2.6
O=C(c1ccco1)c1nc2cc(Cl)ccc2[n+]([O-])c1C(F)(F)F	> 100	> 100	51.2	> 100	54.5	> 100	29.2	75.7	70.9	> 100	57.1	> 100	34.2	> 100	46	> 100	> 100	> 100	41	> 100
COc1ccc(/C=C\c2cc(OC)c(OC)c(OC)c2)cc1OC(=O)c1cccc(Cn2cc(CCOC(=O)[C@H](N)Cc3cn(C)c4ccccc34)nn2)c1	0.455	> 100	< 0.01	> 60.7	< 0.0136	> 100	0.208	> 85.4	< 0.01	> 100	< 0.01	> 100	< 0.01	> 51.9	< 0.01	0.0293	0.111	> 100	0.0123	14
O=C1/C(=C/c2ccccc2)CN(C(=O)c2cccnc2)C/C1=C\c1ccccc1	3.52	11.6	1.99	4.53	2.85	9.74	3.3	13.8	0.435	2.41	2.08	11.8	1.92	4.83	5.48	26.7	2.07	4.57	0.322	1.46
Cc1ccccc1N=Nc1ccc(NC(=O)c2ccnn2C)c(C)c1	24	> 100	23.9	> 100	25.1	> 100	8.71	> 100	24	> 100	98.5	> 100	20.2	78.2	3.66	33.5	18.8	> 100	17.8	> 100
COc1cc(-c2nn(-c3cccc(NC(=O)Nc4cc(C(F)(F)F)cc(C(F)(F)F)c4)c3)cc2-c2ccncc2)ccc1Cl	1.16	2.87	0.309	16.9	0.592	2.34	0.698	12.9	0.36	1.13	0.524	3.98	0.675	1.43	0.961	2.74	0.892	1.82	0.563	8.59
Cc1c(-c2c(-c3ccc(F)o3)sc3ncnc(O[C@H](Cc4ccccc4OCc4ccnn4CC(F)(F)F)C(=O)O)c23)ccc(OCCN2CCN(C)CC2)c1Cl	5.74	14.8	6.46	19	5.68	14.8	4.86	17.8	4.59	10.7	5.82	15.5	3.8	7.84	1.92	5.61	3.97	8.33	0.375	4.61
O=C(CN1CCN(CCCOc2c(-c3ccccc3)oc3ccccc3c2=O)CC1)Nc1ccc(Cl)cc1C(=O)c1ccccc1Cl	15.1	54.2	14.8	> 100	6.16	47.3	7.48	54.8	5.86	19.1	4.33	22.2	4.26	19.3	4.39	47.1	5.58	19.4	3.5	26.5
CCn1c(CN2CCN(Cc3ccccc3)CC2)nc2cc(NC(=O)c3cccs3)ccc21	25.7	71.6	18.7	75.4	26.5	80.3	16.4	86.4	13.6	32.3	20.1	55.9	16.9	> 100	12.4	30.6	21.4	66.1	19.5	59.9
COc1cc2cc(Oc3ccc(NC(=O)Nc4cccc(C(F)(F)F)c4)cc3)c(C)nc2cc1OC	2.06	10.6	1.64	7.71	2.95	24.9	2.3	9.7	1.56	5.61	1.71	6.28	1.13	4.15	1.17	6.18	1.74	9.24	1.34	5.43
Cn1c(/C=C(\C#N)c2ccccc2)nc2c(N3CCOCC3)nc(Cl)nc21	4.54	16.2	0.458	1.59	0.871	2.17	1.13	2.5	1.47	2.97	1.04	3.39	1.31	2.92	0.276	1.59	1.56	3.05	0.48	2.15
Nc1c(Br)cc(Br)c2c1[nH]c(=O)c1ccccc12	2.85	7.81	3.18	10.4	4.85	38.5	1.34	3.43	5.08	26.7	4.04	26.5	2.36	61.1	1.36	3.77	2.72	7.83	0.577	> 100
CCCc1cc2c(=O)c(C(=O)OC)c[nH]c2cc1N(CC)CC	36.5	> 100	17.6	60.9	> 100	> 100	22.4	74.5	18.2	39.8	29.4	95.7	30.5	84.5	18.6	46.3	19.6	39.8	73.6	> 100
O=C1NC(O)C(c2c[nH]c3ccccc23)=C1c1c[nH]c2ccccc12 (configuration not stated)	> 25	> 25	> 25	> 25	> 25	> 25	> 25	> 25	> 25	> 25	> 25	> 25	> 16.5	> 25	> 25	> 25	> 25	> 25	> 25	> 25
C/C(=N\Nc1cc(C)c2cc(C)ccc2n1)c1ccccn1	0.0743	7.21	< 0.0424	1.14		0.425	0.0303	0.367	< 0.0393	1.16			< 0.0303	1.54	0.205	2.18	0.105	1.27	0.0866	1.16
